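Cultured in 96-well plates, cells were exposed to test compound for 48 hours across five concentrations. At the TGI there is no net growth.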 Where only a bound is given, the exact number is not on record here.

Common to all, as to experiment: inhibition of tumour cell growth, NCI panel, 48 h
The subject of experiment [1] is HCT-116 colon.
Experiment [2] deals with HS 578T breast.
For experiment [3], the system named is MDA-MB-231 breast.
Experiment [4] relates to MDA-N.
Experiment [5] has as its system OVCAR-3 ovarian.
The test system of experiment [6] is OVCAR-4 ovarian.
Experiment [7] concerns OVCAR-5 ovarian.
The test system of experiment [8] is SK-OV-3 ovarian.
Experiment [9] has as its system SNB-19 CNS.
For experiment [10], the system named is UACC-257 melanoma.

Turning to `Cc1cc2nc3c(C#N)c(C)c(CCCl)c(Cl)n3c2cc1C`, the TGI in experiment [1] was 3.06 µM; in experiment [2], greater than 29.6 µM; in experiment [3], 3.66 µM; in experiment [4] it was 6.12 µM; in experiment [5], 3.56 µM; in [6] it was 16.6 µM. Besides, the TGI in experiment [7] was 5.86 µM; in experiment [8] it was greater than 56.6 µM; in [9], 36.3 µM; in experiment [10] it was 5.02 µM.

`COC(=O)C1=C(C)NC(C)=C(C(=O)OC)C1c1cccc(/[N+]([O-])=C/c2ccccc2)c1`: the TGI was 30.4 µM in experiment [1]; greater than 100 µM in experiment [2]; 32 µM in experiment [3]; 31.6 µM in [4]; 31.6 µM in experiment [5]; 30.2 µM in experiment [6]. In addition, the TGI is greater than 100 µM in experiment [7], greater than 100 µM in experiment [8], greater than 100 µM in experiment [9] and 40.5 µM in experiment [10].

For `N#Cc1c(/C=C/c2ccccc2)c2c([nH]c1=S)CCCCC2`, the TGI in [1], in experiment [2], in [3], in [4], in [5] and in experiment [6] was greater than 100 µM each time. The TGI in experiment [7], in [8], in experiment [9] and in experiment [10] was greater than 100 µM in each case.

Take `Cc1cnc2c(c1)C(=O)N(c1ccc(Oc3ccccc3)cc1)S2(=O)=O`: the TGI in [1], in experiment [2], in [3], in [4], in experiment [5] and in [6] was greater than 100 µM throughout. For the same molecule, the TGI in [7], in experiment [8], in experiment [9] and in [10] was greater than 100 µM throughout.

As to `CCSC12OC3(CCCCCN3C1=O)C1C(=O)N(c3ccccc3)C(=O)C12` (stereo not given), the TGI in experiment [1], in experiment [2], in experiment [3], in [4], in experiment [5] and in [6] was greater than 100 µM throughout. Further, the TGI in experiment [7], in experiment [8], in experiment [9] and in experiment [10] was greater than 100 µM each time.

For `CC1(C)CCCCCC(O)C(O)CCC(C)(C)C1=O` (stereo not given), the TGI in experiment [1], in [2], in experiment [3], in experiment [4], in experiment [5] and in experiment [6] was greater than 100 µM each time. Also, the TGI in experiment [7], in experiment [8], in [9] and in [10] was greater than 100 µM each time.

The values above are taken from PubChem BioAssay (NCI).
